Here are results for 14 molecules from patent publication US12173007B2, “Imidazopyridazine IL-17 inhibitor compounds” (Janssen Pharmaceutica NV, priority 2021, dated 2024).

In assay [1] the target is IL-17A(FLAG-Tagged): IL-17RA(His-Tagged) binding (Homo sapiens, UniProt Q16552, K93Q). As to the kind of experiment: IL-17A(FLAG-tagged):IL-17RA(His-tagged) binding disruption Eu-HTRF assay, Protocol 2. The following applies: FLAG-IL-17A 1 nM; average if tested more than once. The text has this: IL-17A(FLAG-Tagged): IL-17RA(His-Tagged) Binding Disruption Eu-HTRF Assay
An antibody directed against the FLAG tag of IL-17A (SEQ ID NO: 1) is labeled with the HTRF donor chromophore (Europium-cryptate). IL-17A is present as a dimer that is “locked into” this quaternary structure due to the formation of loop-spanning […] disulfide bridges. The construct of IL-17RA used in the assay excludes the […] portion of the receptor and is fused to a C-terminal 10×His tag (SEQ ID NO:2). An antibody directed against the His tag of the IL-17RA chimera is labeled with the HTRF acceptor chromophore (“D2”). The fluorescence-resonance energy transfer (FRET) depends on the vicinity of the donor chromophore to the acceptor, and interruption of the binding between the IL-17A and IL-17RA causes the reduction/loss of FRET. Therefore, this assay allows to evaluate the compound effect on the binding IL-17A and IL-17RA by monitoring the fluorescence intensity of donor vs acceptor. The assay was run using either Protocol 1 or Protocol 2 as described below.
Protocol 2. 40 nl of 2-fold serial diluted compound solution for total 22 dilution points is added into each well of a 1536-well, white, low-volume, non-binding plate (Greiner #782904), then 2 μl of FLAG tagged IL-17A at 2×final concentration (1 nM) in solution of PBS+0.01% Triton-X100 is added to each well. The assay plate is briefly centrifuged then incubated for 1 h at rt. A mixed solution is prepared containing 2×5 nM 10HIS×IL-17RA, 2×2.5 nM Eu-anti-FLAG (CISBIO), 2×5 nM D2-anti-HIS (CISBIO) in PBS+0.01% Triton-X100+200 mM Potassium Fluoride (Sigma 60238) and 2 μl of mix is added to each well of the assay plate. The plate is briefly centrifuged then incubated for 2 h at rt. The HTRF intensities at the wavelength of donor (615 nm) and acceptor (665 nm) are measured using BMG Pherastar. The ratio between intensities at two wavelengths is calculated and plotted against the compound concentration and the data is fitted to a one-site competition model to yield IC50 of the compound.
(Time-resolved FRET reads energy transfer from a long-lived donor to a nearby acceptor.)

Assay [2] relates to IL-17A-induced G-CSF production in human normal keratinocyte (NHK). As to the kind of experiment: NHK assay: IL-17A-induced G-CSF production in normal human keratinocytes. The following applies: Homo sapiens, Keratinocyte, 24 h, IL-17A 5 ng/mL, G-CSF by HTRF, average if tested more than once. It is filed as cell-based. The protocol: IL-17A acts directly on keratinocytes through binding to dimeric receptor IL-17RA/RC and drives the production of a number of inflammatory mediators known to be elevated in psoriasis lesional tissue. IL-17A small molecule inhibitors that block the IL-17A to interact with IL-17R would inhibit the IL-17A signaling in its targeted cells such as keratinocytes. The compound functional activity is evaluated for its impact on IL-17A-induced G-CSF production in human normal keratinocyte (NHK).
Adult normal human keratinocytes are cultured in keratinocyte growth medium (Lonza) in a flask till reaching ˜90% confluence, then cells are transferred to a 384-well plate at density of 3000-4000 cell/well. Recombinant human IL-17A (Gibco PHC9174) is pre-incubated with titrated compound or DMSO for 1 h at rt then added to the cell culture plate. The final concentration of IL-17A is 5 ng/mL and DMSO is 0.2%, in the culture containing 5% FBS. Cells are cultured/treated for 24 h at 37° C. Supernatants are collected and G-CSF production is measured through HTRF technology using Human G-CSF Kit (CisBio). G-CSF concentration was extrapolated from the standard curve and IC50 is determined using GraphPad Prism. Cell viability is also evaluated using CellTiter-Glo kit (Promega) and effect of compound on cell viability is compared to DMSO control.

A word on the IC50: it is the concentration that gives 50% inhibition. Read a low IC50 as higher potency.

UniProt Q16552, sequence (Q16552 with tags, fused parts or gaps K93Q): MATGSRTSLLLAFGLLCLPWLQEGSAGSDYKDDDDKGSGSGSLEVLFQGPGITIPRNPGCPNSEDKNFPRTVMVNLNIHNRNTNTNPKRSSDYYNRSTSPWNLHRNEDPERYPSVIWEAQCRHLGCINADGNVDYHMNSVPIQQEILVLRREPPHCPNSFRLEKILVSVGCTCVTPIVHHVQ

For the molecule `COC[C@H](c1cnn2cc([C@@H](NC(=O)c3nonc3C3CC3)[C@@H](C)OC3CC3)nc2c1)N1CC(F)(F)CNC1=O` (relative stereo) [Example 54, N-((1R*,2R*)-2-Cyclopropoxy-1-(7-((S)-1-(5,5-difluoro-2-oxotetrahydropyrimidin-1(2H)-yl)-2-methoxyethyl)imidazo[1,2-b]pyridazin-2-yl)propyl)-4-cyclopropyl-1,2,5-oxadiazole-3-carboxamide], the IC50 is below 50 nM in assay [1] and 50 to 100 nM in assay [2]. Regarding `COC[C@H](c1cnn2cc([C@@H](NC(=O)c3nonc3C3CC3)[C@H](C)OC3CC3)nc2c1)N1CC(F)(F)CNC1=O` (relative stereo) [Example 55, N-((1R*,2S*)-2-cyclopropoxy-1-(7-((S)-1-(5,5-difluoro-2-oxotetrahydropyrimidin-1(2H)-yl)-2-methoxyethyl)imidazo[1,2-b]pyridazin-2-yl)propyl)-4-cyclopropyl-1,2,5-oxadiazole-3-carboxamide], the IC50 in assay [1] and in assay [2] was above 100 nM each time. On to `COC[C@H](c1cnn2cc([C@@H](NC(=O)c3nonc3C)[C@H](C)OC(C)(C)C(F)(F)F)nc2c1)N1CC(F)(F)CNC1=O` (relative stereo) [Example 61, N-((1R*,2S*)-1-(7-((S)-1-(5,5-Difluoro-2-oxotetrahydropyrimidin-1(2H)-yl)-2-methoxyethyl)imidazo[1,2-b]pyridazin-2-yl)-2-((1,1,1-trifluoro-2-methylpropan-2-yl)oxy)propyl)-4-methyl-1,2,5-oxadiazole-3-carboxamide], for which the IC50 in assay [1] and in assay [2] was above 100 nM throughout. For `COC[C@H](c1cnn2cc([C@@H](NC(=O)c3nonc3C3CC3)[C@@H](C)OC3(C(F)(F)F)CC3)nc2c1)N1CC(F)(F)CNC1=O` (relative stereo) [Example 90, 4-Cyclopropyl-N-((1R*,2R*)-1-(7-((S)-1-(5,5-difluoro-2-oxotetrahydropyrimidin-1(2H)-yl)-2-methoxyethyl)imidazo[1,2-b]pyridazin-2-yl)-2-(1-(trifluoromethyl)cyclopropoxy)propyl)-1,2,5-oxadiazole-3-carboxamide], the half-maximal inhibitory concentration (IC50) in assay [1] and in assay [2] was below 50 nM in each case. Regarding `Cc1nonc1C(=O)N[C@@H](CC(C)(C)C(F)(F)F)c1cn2ncc([C@@H](COC3CC3)N3CC(F)(F)CNC3=O)cc2n1` [Example 50, N—((S)-1-(7-((S)-2-Cyclopropoxy-1-(5,5-difluoro-2-oxotetrahydropyrimidin-1(2H)-yl)ethyl)imidazo[1,2-b]pyridazin-2-yl)-4,4,4-trifluoro-3,3-dimethylbutyl)-4-methyl-1,2,5-oxadiazole-3-carboxamide], the half-maximal inhibitory concentration (IC50) in assay [2] was below 50 nM. On the same count and under the same terms, in the case of `COC[C@H](c1cnn2cc([C@@H](NC(=O)c3nonc3C)[C@@H](C)O[C@H](C)C(F)(F)F)nc2c1)N1CC(F)(F)CNC1=O` [Example 53, N-((1R,2R)-1-(7-((S)-1-(5,5-Difluoro-2-oxotetrahydropyrimidin-1(2H)-yl)-2-methoxyethyl)imidazo[1,2-b]pyridazin-2-yl)-2-(((R)-1,1,1-trifluoropropan-2-yl)oxy)propyl)-4-methyl-1,2,5-oxadiazole-3-carboxamide] it was below 50 nM. Still for that read-out and setting: in the case of `Cc1nonc1C(=O)N[C@@H](COC(C)(C)C(F)(F)F)c1cn2ncc([C@@H](C3CC3)N3CC(F)(F)CNC3=O)cc2n1` [Example 62, N—((R)-1-(7-((R)-Cyclopropyl(5,5-difluoro-2-oxotetrahydropyrimidin-1(2H)-yl)methyl)imidazo[1,2-b]pyridazin-2-yl)-2-((1,1,1-trifluoro-2-methylpropan-2-yl)oxy)ethyl)-4-methyl-1,2,5-oxadiazole-3-carboxamide] it was 50 to 100 nM.

In turn, `C[C@H](c1cnn2cc([C@@H](NC(=O)c3nonc3C3CC3)C3CCC(F)(F)CC3)nc2c1)N1CC(F)(F)CNC1=O` [Example 63, 4-Cyclopropyl-N—((S)-(7-((R)-1-(5,5-difluoro-2-oxotetrahydropyrimidin-1(2H)-yl)ethyl)imidazo[1,2-b]pyridazin-2-yl)(4,4-difluorocyclohexyl)methyl)-1,2,5-oxadiazole-3-carboxamide] came in with an IC50 in assay [2] below 50 nM. In assay [2], `COC[C@H](c1cnn2cc([C@H](COC(C)(C)C(F)(F)F)NC(=O)c3nonc3C3CC3)nc2c1)N1CC(F)(F)CNC1=O` [Example 64, 4-Cyclopropyl-N—((R)-1-(7-((S)-1-(5,5-difluoro-2-oxotetrahydropyrimidin-1(2H)-yl)-2-methoxyethyl)imidazo[1,2-b]pyridazin-2-yl)-2-((1,1,1-trifluoro-2-methylpropan-2-yl)oxy)ethyl)-1,2,5-oxadiazole-3-carboxamide] gave an IC50 below 50 nM. In assay [2], `COC[C@H](c1cnn2cc([C@H](COC(C)(C)C(F)(F)F)NC(=O)c3ccnn3C(C)C)nc2c1)N1CC(F)(F)CNC1=O` [Example 65, N—((R)-1-(7-((S)-1-(5,5-Difluoro-2-oxotetrahydropyrimidin-1(2H)-yl)-2-methoxyethyl)imidazo[1,2-b]pyridazin-2-yl)-2-((1,1,1-trifluoro-2-methylpropan-2-yl)oxy)ethyl)-1-isopropyl-1H-pyrazole-5-carboxamide] displayed an IC50 below 50 nM.

In assay [2], `COC[C@H](c1cnn2cc([C@H](CC(C)(C)C(F)(F)F)NC(=O)c3nonc3C)nc2c1)N1CC(F)(F)CNC1=O` [Example 66, N—((S)-1-(7-((S)-1-(5,5-Difluoro-2-oxotetrahydropyrimidin-1(2H)-yl)-2-methoxyethyl)imidazo[1,2-b]pyridazin-2-yl)-4,4,4-trifluoro-3,3-dimethylbutyl)-4-methyl-1,2,5-oxadiazole-3-carboxamide] came in with an IC50 of 50 to 100 nM. Still for that read-out and setting: in the case of `COC[C@H](c1cnn2cc([C@@H](CCC(C)(C)C(F)(F)F)NC(=O)c3nonc3C)nc2c1)N1CC(F)(F)CNC1=O` [Example 67, N—((R)-1-(7-((S)-1-(5,5-Difluoro-2-oxotetrahydropyrimidin-1(2H)-yl)-2-methoxyethyl)imidazo[1,2-b]pyridazin-2-yl)-5,5,5-trifluoro-4,4-dimethylpentyl)-4-methyl-1,2,5-oxadiazole-3-carboxamide] it was above 100 nM; in that of `C[C@H](c1cnn2cc([C@H](COC(C)(C)C(F)(F)F)NC(=O)c3nonc3C3CC3)nc2c1)N1CC(F)(F)CNC1=O` [Example 87, 4-Cyclopropyl-N—((R)-1-(7-((R)-1-(5,5-difluoro-2-oxotetrahydropyrimidin-1(2H)-yl)ethyl)imidazo[1,2-b]pyridazin-2-yl)-2-((1,1,1-trifluoro-2-methylpropan-2-yl)oxy)ethyl)-1,2,5-oxadiazole-3-carboxamide], below 50 nM; in that of `C[C@H](c1cnn2cc([C@H](CC(C)(C)C(F)(F)F)NC(=O)c3nonc3C3CC3)nc2c1)N1CC(F)(F)CNC1=O` [Example 88, 4-Cyclopropyl-N—((S)-1-(7-((R)-1-(5,5-difluoro-2-oxotetrahydropyrimidin-1(2H)-yl)ethyl)imidazo[1,2-b]pyridazin-2-yl)-4,4,4-trifluoro-3,3-dimethylbutyl)-1,2,5-oxadiazole-3-carboxamide], below 50 nM.
